These results are taken from publication doi:10.1101/2025.06.19.660642, “Discovery of orally bioavailable Zika and West Nile Virus antiviral compounds targeting the NS2B-NS3 protease” (bioRxiv, 2025).

A value given as a limit tells only on which side of the number the result lay.

One data set deals with T1, WNV NS2B-NS3 protease (West Nile virus, UniProt P06935).
T1 construct: some activity against the WNV NS2B-NS3 protease
As to the kind of experiment: WNV NS2B-NS3 protease biochemical inhibition.

A short description of another data set: MDR1-MDCK permeability. The data set is classed as in vitro ADME. The settings on record: dog; for Papp B→A: MDCK-MDR1, B→A; for Papp A→B: MDCK-MDR1, A→B. The procedure:
(§1) Figure 5. (A) Further characterization of ASAP-0027808. Papp was determined in MDR1-MDCK cells. Antiviral assays were performed in Vero E6 cells in a 7-day infection using 0.5 uM CP100356 as a P-gp inhibitor (see Supporting Information for more details). (B) The compound was successfully crystallized with ZIKV NS2B-NS3. ASAP-0016806 and ASAP-0027808 both appear to interact with the same residues (catalytic triad His51/Asp75/Ser135 colored yellow, other key residues Tyr161, NS2B Ser81, and NS2B Asp83 colored green). (C) Dose-dependent suppression of ZIKV-induced cytopathy in VeroE6 cells (n=2); no changes to cell viability of uninfected cells treated with the inhibitor was observed. Cells were co-treated with 0.5 μM CP100356 (as P-gp inhibitor). TEXT PRINTED IN THE PICTURE: (A) ASAP-0027808: ZIKV NS2B-NS3 Ki (μM): 0.090; ZIKV EC50 / CC50 (μM): 4.6 / >50; WNV NS2B-NS3 Ki (μM): 2.9; MW (g/mol): 313; CLint,app, HLM (μL/min/mg): < 10; MDR1-MDCK Papp A→B, B→A (10^-6 cm/sec): 2.0 ,11.0; Kinetic solubility (pH 7.4, μM): 279; LogD: 0.9

The next data set has as its target T2, ZIKV NS2B-NS3 protease (Zika virus, UniProt A0A024B7W1).
T2 construct: directed at the co-expressed ZIKV NS2B-NS3 protease
As to the kind of experiment: ZIKV NS2B-NS3 protease biochemical FRET assay.

For another data set, the system named is ZIKV. As to the kind of experiment: ZIKV antiviral assay (virus-induced cytopathy) in Vero E6 cells with P-gp inhibitor. The settings on record: Zika virus, Vero C1008, 168 h, read-out: ZIKV EC50. Format: cell-based. The procedure:
as §1

Data set [1] in a line: Cytotoxicity in uninfected Vero E6 cells. The settings on record: African green monkey; Vero E6 cells, 0.5 uM CP100356 as P-gp inhibitor; read-out: CC50. Format: cell-based. How it is done:
as §1

The nature of the next data set: Kinetic solubility. The settings on record: pH 7.4.
The target of a further data set is T3, urokinase (Homo sapiens, UniProt P00749).
T3 construct: Eurofins
As to the kind of experiment: Eurofins human protease selectivity panel. The data set is classed as biochemical. The settings on record: read-out: inhibitory activity against urokinase. From the text:
Upon crystallization in the active site of ZIKV NS2B-NS3, we noted the compound participating with most of the same residues as ASAP-0016806 (Figure 5B): an aromatic interaction with Tyr161, a hydrogen-bonding interaction with Gly151, an aromatic interaction with His51, and an electrostatic interaction with Asp83 (with a possible additional hydrogen bonding interaction to Ser81).

The next data set deals with Vero E6 cells. As to the kind of experiment: Cytotoxicity in uninfected Vero E6 cells. Format: cell-based. The settings on record: Vero E6 cells treated with a P-gp inhibitor, up to 50 μM. The procedure:
as §1

Data set [2] can be described thus: Microsomal clearance, HLM. The settings on record: human, microsomes.

T2 sequence (A0A024B7W1 1503-1680): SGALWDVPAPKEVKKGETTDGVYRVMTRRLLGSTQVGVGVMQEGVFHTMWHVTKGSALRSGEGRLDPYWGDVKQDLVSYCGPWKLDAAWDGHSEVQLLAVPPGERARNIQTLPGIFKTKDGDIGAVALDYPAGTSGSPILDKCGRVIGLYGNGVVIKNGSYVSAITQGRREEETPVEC
T2 sequence (A0A024B7W1 1425-1464): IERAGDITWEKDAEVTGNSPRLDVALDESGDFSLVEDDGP
T1 sequence (P06935 1424-1463): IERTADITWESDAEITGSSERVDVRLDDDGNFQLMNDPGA
T1 sequence (P06935 1502-1679): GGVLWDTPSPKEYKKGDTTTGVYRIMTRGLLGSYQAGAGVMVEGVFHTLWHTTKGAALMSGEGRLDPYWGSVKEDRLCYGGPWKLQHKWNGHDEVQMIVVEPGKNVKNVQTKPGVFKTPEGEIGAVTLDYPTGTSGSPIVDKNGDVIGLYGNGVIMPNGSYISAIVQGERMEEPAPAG

With `CC(C)NC(=O)[C@@H](Nc1ccc2c(c1)CNC2)c1cc(Cl)cc2[nH]ncc12` [ASAP-0029000], the Ki came to 320 nM at WNV NS2B-NS3 protease and 77 nM at ZIKV NS2B-NS3 protease (ZIKV NS2B-NS3 Ki). This compound also registered a Papp B→A in the data set “MDR1-MDCK permeability” of 2.2 ×10⁻⁶ cm/s. In the data set “LogD”, this compound registered a logD of 0.5.
As to `N#C[C@@H](Nc1ccc2c(c1)CNC2)c1cc(Cl)cc2[nH]ncc12` [ASAP-0028904], the Ki on WNV NS2B-NS3 protease turned out to be 18000 nM; at ZIKV NS2B-NS3 protease (ZIKV NS2B-NS3 Ki) it was 100 nM. In “MDR1-MDCK permeability”, this compound came in with a Papp A→B of 1.1 ×10⁻⁶ cm/s. For the same compound, in “LogD”, the logD was found to be 0.9.
As for `Clc1cc(CNc2ccc3c(c2)CNC3)c2cn[nH]c2c1` [ASAP-0029525], the EC50 in the data set on ZIKV worked out at 17900 nM. In addition, the Ki on WNV NS2B-NS3 protease came to 43000 nM; at ZIKV NS2B-NS3 protease (ZIKV NS2B-NS3 Ki), 2900 nM. Moreover, in [1], the CC50 was determined as 29800 nM.
With `Cc1cc(C(Nc2ccc3c(c2)CNC3)C(=O)NCC(F)F)cc(C(F)(F)F)c1` (centres unmarked) [ASAP-0031651], the concentration giving a half-maximal response (EC50) in the data set with ZIKV came to 450 nM. The compound further registered a Ki on ZIKV NS2B-NS3 protease (Ki, ZIKV NS2B-NS3) of 7.8 nM.
Take `CC(C)NC(=O)[C@@H](Nc1ccc2c(c1)CNC2)c1cc(Cl)cc2[nH]ncc12` [ASAP-0029974]: the EC50 in the data set on ZIKV is 5700 nM. Also, the figures for the Ki on WNV NS2B-NS3 protease and on ZIKV NS2B-NS3 protease (ZIKV NS2B-NS3 Ki) were 360 nM and 48 nM, respectively. In addition, in data set [1], the CC50 is > 50000 nM. The logD in the data set “LogD” is 0.5.
Compound `O=C(Nc1ccc2c(c1)CNC2)c1cc(Cl)cc2[nH]ncc12` [ASAP-0027808] registered a Kinetic solubility in “Kinetic solubility” of 279 µM. Also, in the data set with ZIKV, the EC50 is 4600 nM. The compound also gave a Ki at WNV NS2B-NS3 protease of 2900 nM. In addition, in the data set “MDR1-MDCK permeability”, the Papp A→B stood at 2 ×10⁻⁶ cm/s and the Papp B→A came to 11 ×10⁻⁶ cm/s. For the same compound, on urokinase, the inhibition at 10 µM is 21%. In addition, in the data set on Vero E6 cells, the cytotoxicity entry is on record as “no apparent cytotoxicity”. The CC50 in data set [1] was > 50000 nM. Also, the microsomal CLint in data set [2] is < 10 µL/min/mg. Also, the “Ligand efficiency (LE)” value on ZIKV NS2B-NS3 protease (Ligand efficiency = pKi / heavy atom count) is listed as 0.452. This compound also had a Ki on ZIKV NS2B-NS3 protease (ZIKV NS2B-NS3 Ki) of 90 nM. Moreover, in “LogD”, the logD was 0.9.
For the compound `OCC#C[C@@H](Nc1ccc2c(c1)CNC2)c1cc(Cl)cc2[nH]ncc12` [ASAP-0028990], the Ki on WNV NS2B-NS3 protease was determined as 21000 nM; on ZIKV NS2B-NS3 protease (ZIKV NS2B-NS3 Ki), 990 nM. In addition, in the data set “MDR1-MDCK permeability”, the apical-to-basolateral permeability (Papp A→B) stood at 0.59 ×10⁻⁶ cm/s. This compound also gave a logD in the data set “LogD” of 0.5.
